Assay results: article PMC8298232 (Archives of Toxicology, 2021)
Several values for one entry are separate records, joined by “and”; a condition that tells them apart may be missing. Identical values can stand only once.

Legend:
[1] = Kinetics of UV 328 and its metabolites in blood after single oral exposure of volunteers; format: in vivo, human
Description: Furthermore, blood samples were drawn from each volunteer 2, 4, 6, 8, 10, 24, […] 48 h after exposure. In summary, […] blood samples were collected from every volunteer. One volunteer donated two EDTA—Monovettes® (Sarstedt, Nümbrecht, Germany) for every time point. So, for every sampling time one sample was kept as whole blood while the plasma fraction was extracted for the other. In this case, the respective blood vessels were centrifuged at 800 × g for 5 min. The supernatants were transferred to 15 mL conical plastic tubes (Sarstedt, Nümbrecht, Germany). Both blood and plasma samples were stored frozen at − 50 °C until analysis.
Analysis of blood samples was performed according to a previously published method (Denghel and Göen [2021]). In summary, blood proteins and cellular components were precipitated by the addition of ACN. Afterwards, the supernatant was diluted with sodium chloride solution and the investigated analytes were extracted by dispersive liquid–liquid microextraction (DLLME) using a mixture of CH2Cl2 and ACN. […] Variation coefficients ranged from 2 to 9% for precision in series and from 3 to 11% for interday precision. Additionally, relative recovery rates between 80 and 100% were found.
The ln-transformed mean excretion curve was plotted against the time (in h) to obtain the slope (kel, elimination rate constant) and the excretion half-life (t1/2) as follows: t1/2=ln2/|kel|.

[2] = Renal elimination kinetics of UV 328 and its metabolites in urine after single oral exposure; details: for REmax (maximum renal excretion rate): human urine with hydrolysis; for REmax (maximum renal excretion rate) / FUE after 24 h (urinary excretion factor as dose equivalents of UV 328) / FUE after 72 h ≙ Fraction of oral dose: mean ± SD; for share of cumulative amounts of all quantified analytes in urine: urine with hydrolysis, cumulative within 72 h; for Tmax / half-life: both, human, urine, po; for half-life: t½ (renal elimination half-life); for FUE after 24 h (urinary excretion factor as dose equivalents of UV 328): 0–24 h; for FUE after 72 h ≙ Fraction of oral dose: 0–72 h
Description: Three volunteers (two men and one person, mean age 37.3 ± 15.5, mean body weight 81.3 ± 6.1 kg) were selected for the in vivo study. Prior to oral exposure, every volunteer collected one urine sample. Additionally, one blood sample was taken using EDTA-Monovettes® (Sarstedt, Nümbrecht, Germany) before exposure. […] Thereby, a safety factor of 100 was considered for single application and interspecies differences, resulting in a dose of 0.3 mg/kg bw. […] Participants collected the total urine volume of each void separately throughout 72 h and recorded the respective sampling times. […] The urine samples were volumetrically measured for each sampling point, aliquoted in urine Monovettes® (Sarstedt, Nümbrecht, Germany) and stored frozen at − 50 °C until analysis.
The urine samples were processed according to a previously published procedure (Denghel and Göen [2020]). In brief, urine samples were enzymatically hydrolyzed using β-glucuronidase/arylsulfatase from Helix pomatia. […] The extracts were derivatized with BSA/TMCS and TSIM and finally measured via GC–MS/MS with advanced electron ionization (AEI).
Thereby, RE,i is the renal excretion rate for the urine sample i (in µg/h), ci is the analyte concentration in the urine sample (in µg/L), Vi is the volume of the urine sample (in L) and ti and ti-1 are the elapsed time values (in h) of the sample and the previous sample, respectively.
Afterwards, the time course of the excretion rates RE,i was recorded for the middle of the respective sampling period (ti,m in h) according to the equation: ti,m=ti-1+ti-ti-1/2.
The current excretion rates were plotted as a function of the average time of the respective sampling period for every volunteer and each analyte.
Finally, mean excretion curves were calculated by taking the average of related urinary sampling times and the corresponding renal excretion rates (in µg/h) for all volunteers’ samples (arithmetic mean ± standard deviation). The mean cumulative excreted amount (in µmol) of all volunteers was obtained by addition of each molar excreted amount: ∑i=0nci×Vi/M.
Thereby, ci is the concentration of the metabolite in urine (in µg/L), Vi is the volume of the respective urine sample (in L) and M is the molar mass of the respective metabolite (in µg/µmol).
Afterwards, excretion half-lives (t1/2) (in h) were ascertained as described in Sect. “Evaluation of blood kinetics” by plotting the current excretion rates as function of time.

beagle dogs [3] = details: ref US EPA [2009]; cited from earlier work
animal studies = details: oral exposure, ref CIBA-GEIGY [1978], Kim et al. [2011a]; cited from earlier work
beagle dogs [4] = details: ref ECHA [2013], Geigy [1970], Til et al. [1968]; cited from earlier work
[5] = Shares of conjugated analytes in urine (analysis with and without β-glucuronidase/arylsulfatase hydrolysis); details: for Conjugation ratio: with vs without hydrolysis
Description: The analysis of urine samples was performed with and without hydrolysis for one volunteer to determine the shares of analytes conjugated with glucuronic acid or sulfate. Initially, urine samples were thawed, equilibrated to room temperature and homogenized using a vortex mixer. Afterwards, the Monovettes® were centrifuged for 2 min at 1600 g to sediment solid residue in the sample. 1 mL of the sample was transferred into a 15 mL conical tube (Sarstedt, Nümbrecht, Germany). Without hydrolysis, 1 mL of the urine samples was prepared with 200 μL of ammonium acetate buffer (1 mol/L, pH 6) and 10 μL of the internal standard mix solution. […] Finally, the calculated analyte excretion rates (see Sect. “Evaluation of renal elimination”) obtained with hydrolysis were correlated with the ones prepared without hydrolysis for every detected compound. A linear curve fit was applied to the plotted data points. The resulting slope of the regression line described the percentage of free and therefore unconjugated analyte.
Therefore, urine samples of one volunteer were analyzed with and without addition of β-glucuronidase/arylsulfatase from Helix pomatia and incubation according to the standard procedure previously published (Denghel and Göen [2020]) (see Sect. “Analysis of urine samples without hydrolysis”).

[6] = Medical laboratory values (liver, kidney, LDH, CK) of volunteers before, during and one week after oral exposure; format: in vivo, human; details: third subject, seven days after exposure; not attributed to the exposure by the investigators
Description: Because of potential confounding effects on those liver and kidney laboratory parameters and their potential to indicate massive cell destruction, lactate dehydrogenase (LDH) and creatinine kinase (CK) were included in the medical blood work as well. All medical laboratory values were carried out by an accredited medical laboratory. Thus, initial pathological laboratory values for liver or kidney function were defined as further exclusion criteria for study participation. In case of occurrence of relevant pathological medical values for liver or kidney function during the ongoing study which could be attributable to the study exposure, no further subjects were to be included until further clarification, potentially leading to a full cessation of the whole study.

rats = details: ref ECHA [2013], Geigy [1970], Til et al. [1968]; cited from earlier work
[7] = Distribution between blood compartments (plasma to blood ratio); format: in vivo, human
Description: Furthermore, blood samples were drawn from each volunteer 2, 4, 6, 8, 10, 24, 34 and 48 h after exposure. In summary, eight blood samples were collected from every volunteer. […] So, for every sampling time one sample was kept as whole blood while the plasma fraction was extracted for the other. In this case, the respective blood vessels were centrifuged at 800 × g for 5 min. The supernatants were transferred to 15 mL conical plastic tubes (Sarstedt, Nümbrecht, Germany). Both blood and plasma samples were stored frozen at − 50 °C until analysis.
Therefore, the concentrations of the analytes in whole blood and plasma were determined according to the SOP (Denghel and Göen [2021]) and an established procedure (see supplemental material), respectively. The results for whole blood and plasma were plotted against the time points of the respective sampling and the plasma to blood ratios (p/b) were calculated by a simplified approach for estimating the AUC ratios. Therefore, all plasma concentrations (in µg/L) determined were added and divided through the sum of the respective blood concentrations (in µg/L) according to the equation: p/b=∑i=0ncplasma/∑i=0ncblood.
Analysis of plasma samples
For the analysis of plasma samples, the procedure for blood samples was adjusted as follows: Initially, CPD plasma was equilibrated to room temperature and homogenized by manual shaking. Frozen samples of the study participants were thawed, equilibrated to room temperature, and homogenized using a vortex mixer. Aliquots of 1 mL were prepared with 10 µL of the internal standard mix. Afterwards, the plasma proteins were precipitated by the additions of 3 mL ACN with 0.1 % formic acid. The samples were vortex-blended for 1 min and centrifuged for 15 min at 3000 x g. The supernatants were transferred into 25 mL tubes with conical bottom (Sarstedt, Nümbrecht, Germany) and diluted with 4 mL of 1 % sodium chloride solution. Afterwards, a mixture of 800 µL CH 2Cl2 and 800 µL ACN was added to every tube. Again, the samples were vortex - blended for 1 min and centrifuged for 15 min at 3000 x g. The upper organic phases wer e transferred into 3 mL screw vials (Müller + Krempel AG, Bülach, Switzerland) and dried under nitrogen. The residues were derivatized with 90 µL BSA + 5 % TMCS. After 30 min reaction time at room temperature, 10 µL of 10 % TSIM were added. The samples wer e transferred to micro inserts, sealed with crimping caps, and incubated at 40 °C for 90 min. Finally, measurement was performed using GC -MS/MS

[8] = human whole blood, oral 0.3 mg UV 328/kg body weight, mean ± SD, n = 3
[9] = post-dosage human urine, collected until 72 h
[10] = blood samples 8 h after exposure, without hydrolysis, n = 3
[11] = both sexes, human, in vivo, po, 0.3 mg/kg
[12] = both sexes, human, in vivo, po, 0.3 mg/kg, t1/2 (0–24 h) in blood
[13] = both sexes, human, in vivo, po, 0.3 mg/kg, t1/2 (24–48 h) in blood
[14] = both sexes, human, whole blood, po, 0.3 mg/kg bw, human whole blood, oral 0.3 mg UV 328/kg body weight, mean ± SD, n = 3
[15] = both sexes, human, whole blood, po, 0.3 mg/kg bw, human whole blood, oral 0.3 mg UV 328/kg body weight, n = 3, read-out: tmax in blood
[16] = both sexes, human, whole blood, po, 0.3 mg/kg, first elimination phase, human blood, oral 0.3 mg/kg bw, n = 3, read-out: t1/2 (0–24 h) in blood (converted)
[17] = both sexes, human, whole blood, po, 0.3 mg/kg, second elimination phase, human blood, oral 0.3 mg/kg bw, n = 3, read-out: t1/2 (24–48 h) in blood (converted)
[18] = 0.3 mg/kg, human urine, monophasic, oral 0.3 mg/kg bw, n = 3
[19] = sum of plasma concentrations / sum of blood concentrations, one volunteer (n = 1)
[20] = both sexes, human, in vivo, po, tmax in blood

## CCC(C)(C)c1cc(-n2nc3ccccc3n2)c(O)c(C(C)(C)C(C)=O)c1 [UV 328-6/3-CO, 2-(2H-benzotriazol-2-yl)-6-(2-methylbutan-3-on-2-yl)-4-(tert-pentyl)phenol]
[1]; human blood, plateau until 48 h after exposure
  plateau concentration in blood: ~0.1 µg/L
[1]; [8]
  cmax in blood: < LOQ
[2]; [9]
  detection in urine samples after exposure: not detected

## CCC(C)(C)c1cc(-n2nc3ccccc3n2)c(O)c(C(C)(C)CC)c1 [UV 328, 2-(2H-Benzotriazol-2-yl)-4,6-di-tert-pentylphenol]
[1]; [10]
  share of all detected parameters in blood: 95.2 ± 2.0%
[1]; [11]
  concentration at 24 h: 83.1 ± 54.2 ng/mL
  concentration at 48 h: 29.1 ± 19.4 ng/mL
[1]; [12]
  half-life: 5.3 h
[1]; [13]
  half-life: 16.3 h
[1]; [14]
  Cmax: 736 ± 489 ng/mL
[1]; [15]
  Tmax: 8 h
[1]; [8]
  cmax in blood: 736.2 ± 488.7 µg/L
Beagle dogs [3]
  No Observed Adverse Effect Level (NOAEL): 30 mg UV 328/kg bw/day
[2]; oral 0.3 mg/kg bw, n = 3
  REmax (maximum renal excretion rate): 0.013 ± 0.003 µg/h
[2]; n = 3
  share of cumulative amounts of all quantified analytes in urine: 1.0 ± 0.1%
Animal studies
  acute toxicity: No acute toxicity was observed
Beagle dogs [4]
  toxicity after repeated oral administration: specific target organ toxicity to liver and kidneys
[5]; urine of one volunteer
  share excreted via urine without conjugation to glucuronic acid or sulfate: about 84%
[5]; urine of one volunteer, slope = fraction of free analyte
  slope of the linear regression line (excretion rates without vs with hydrolysis): 0.84
[6]
  CK value (creatinine kinase): 6784 U/L
rats
  toxicity after repeated oral administration: specific target organ toxicity to liver and kidneys

## CCC(C)(C)c1cc(C(C)(C)C(C)O)cc(-n2nc3ccccc3n2)c1O (centres unmarked) [UV 328-4/3-OH, 2-(2H-benzotriazol-2-yl)-4-(3-hydroxy-2-methylbutan-2-yl)-6-(tert-pentyl)phenol]
[1]; [10]
  share among the quantified metabolites in blood: 19.5 ± 4.9%
[1]; [14]
  Cmax: 7.4 ± 0.9 ng/mL
[1]; [15]
  Tmax: 10 h
[1]; [16]
  half-life: 5.9 h
[1]; [17]
  half-life: 15.7 h
[1]; both sexes, whole blood, human blood, 24 h after oral 0.3 mg/kg bw, mean ± SD, n = 3, read-out: mean blood level 24 h after exposure
  concentration at 24 h: 1.5 ± 0.5 ng/mL
[1]; human whole blood, oral 0.3 mg UV 328/kg body weight, n = 3
  tmax in blood: 8 h
[2]; 0.3 mg/kg
  Tmax: 9.3 h
[2]; [18]
  half-life: 46.4 h
[2]; oral 0.3 mg/kg bw, n = 3
  REmax (maximum renal excretion rate): 0.10 ± 0.04 µg/h
[2]; human urine, n = 3
  FUE after 24 h (urinary excretion factor as dose equivalents of UV 328): 0.004 ± 0.001%
  FUE after 72 h ≙ Fraction of oral dose: 0.007 ± 0.003%
[2]; n = 3
  share of cumulative amounts of all quantified analytes in urine: 6.1 ± 2.3%
[7]; [19]
  p/b ratio (plasma to blood ratio): 2.1
[5]; urine of one volunteer
  Conjugation ratio: 100%

## CCC(C)(C)c1cc(-n2nc3ccc(O)cc3n2)c(O)c(C(C)(C)CC)c1 [UV 328-BTOH, 2-(2H-5-hydroxybenzotriazol-2-yl)-4,6-(di-tert-pentyl)phenol]
[1]; human, in vivo, po, 0.3 mg/kg
  detection in blood samples after exposure: not detected
[2]; in vivo
  detection in urine samples after exposure: not detected

## CC(=O)C(C)(C)c1cc(-n2nc3ccccc3n2)c(O)c(C(C)(C)C(C)O)c1 (centres unmarked) [UV 328-4/3-CO-6/3-OH, 2-(2H-benzotriazol-2-yl)-4-(2-methylbutan-3-on-2-yl)-6-(3-hydroxy-2-methylbutan-2-yl)phenol]
[1]; [10]
  share among the quantified metabolites in blood: 13.7 ± 2.5%
[1]; both sexes, human, whole blood, oral, 0.3 mg/kg bw, human blood, plateau-shaped elimination curve, phase not specified, read-out: elimination half-life in blood
  half-life: > 600 h
[1]; [14]
  Cmax: 4.95 ± 0.72 ng/mL
[1]; [15]
  Tmax: 24 to 34 h
[1]; [16]
  half-life: < 600 h
[1]; [17]
  half-life: < 600 h
[1]; human blood, post-dosage
  time at which the plateau of blood levels was reached: around 10 h
[2]; 0.3 mg/kg
  Tmax: 11.3 h
[2]; [18]
  half-life: 53.5 h
[2]; oral 0.3 mg/kg bw, n = 3
  REmax (maximum renal excretion rate): 0.65 ± 0.02 µg/h
[2]; human urine, n = 3
  FUE after 24 h (urinary excretion factor as dose equivalents of UV 328): 0.038 ± 0.010%
  FUE after 72 h ≙ Fraction of oral dose: 0.081% and 0.081 ± 0.018%
[2]; human urine, monophasic, oral 0.3 mg/kg bw, n = 3, 0.3 mg/kg
  t½ (renal elimination half-life): 53.3 h
[2]; [9]
  detection in urine samples after exposure: still detectable in urine after the observed period of 72 h
[2]; n = 3
  share of cumulative amounts of all quantified analytes in urine: 65.8 ± 10.9%
[7]; [19]
  p/b ratio (plasma to blood ratio): 2.0
[5]; urine of one volunteer
  Conjugation ratio: 100%

## CCC(C)(C)c1cc(C(C)(C)C(C)=O)cc(-n2nc3ccccc3n2)c1O [UV 328-4/3-CO, 2-(2H-benzotriazol-2-yl)-4-(2-methylbutan-3-on-2-yl)-6-(tert-pentyl)phenol]
[1]; [11]
  concentration at 24 h: 0.9 ± 0.3 ng/mL
[1]; [12]
  half-life: 8.3 h
[1]; [13]
  half-life: 16.4 h
[1]; [20]
  Tmax: 8 h
[7]; human, in vivo
  p/b ratio (plasma to blood ratio): 3.2
[5]; urine of one volunteer
  Conjugation ratio: 100%

## CCC(C)(C)c1cc(-n2nc3ccccc3n2)c(O)c(C(C)(C)C(C)O)c1 (centres unmarked) [UV 328-6/3-OH, 2-(2H-benzotriazol-2-yl)-6-(3-hydroxy-2-methylbutan-2-yl)-4-(tert-pentyl)phenol]
[1]; [11]
  concentration at 24 h: 5.2 ± 0.6 ng/mL
[1]; [12]
  half-life: 9 h
[1]; [13]
  half-life: 17.9 h
[1]; [20]
  Tmax: 8 h
[1]; both, human, in vivo, po
  tmax in blood: 10 h
[7]; human, in vivo
  p/b ratio (plasma to blood ratio): 2.3
[5]; human, in vivo
  share excreted via urine without conjugation to glucuronic acid or sulfate: about 3%
[5]; urine of one volunteer
  Conjugation ratio: 97%
